In patent US10800792B2, “Inhibitors of Bruton's tyrosine kinase and method of their use” (JANSSEN PHARMACEUTICA NV, priority 2015, dated 2020):

Molecular target: unphosphorylated-BTK kinase domain (UP-BTK), GST-tagged human BTK (389-659aa) (Homo sapiens (Human), UniProt Q06187)
Experiment: BTK kinase Lanthascreen binding assay
Settings: unphosphorylated-BTK kinase domain, 50 nM Tracer 236, 60 minutes; pIC50 = negative log of the IC50 in molar
Summary of the method: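 Values are pIC50, i.e. negative log of IC50 in molar, derived from concentration–response fitting. Each compound competes with a fluorescently labelled tracer for the unphosphorylated kinase domain.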

Chain of unphosphorylated-BTK kinase domain (UP-BTK), GST-tagged human BTK (389-659aa) (Q06187 389-659): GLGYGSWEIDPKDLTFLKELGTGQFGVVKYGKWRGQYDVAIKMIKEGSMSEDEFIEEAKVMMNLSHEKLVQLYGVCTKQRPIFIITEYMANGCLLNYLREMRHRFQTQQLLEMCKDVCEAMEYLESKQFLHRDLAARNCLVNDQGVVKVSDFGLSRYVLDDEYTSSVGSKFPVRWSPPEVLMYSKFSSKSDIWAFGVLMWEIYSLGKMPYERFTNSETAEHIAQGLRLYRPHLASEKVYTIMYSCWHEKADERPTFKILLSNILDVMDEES

| Structure (SMILES) | BTK_I_binding pIC50 |
| --- | --- |
| Cc1cc(Oc2ccccn2)ccc1N1C(=O)Nc2c(C(=O)N[C@@H]3CCCN(C)C3)sc3nccc1c23 [Example 306, (R)-5-(2-Methyl-4-(pyridin-2-yloxy)phenyl)-N-(1-methylpiperidin-3-yl)-4-oxo-4,5-dihydro-3H-1-thia-3,5,8-triazaacenaphthylene-2-carboxamide] | 6.0 |
| Cc1cc(Oc2ccccc2)c(F)cc1N1C(=O)Nc2c(C(=O)N[C@H]3CCCOC3)sc3nccc1c23 [Example 308, (S)-5-(5-Fluoro-2-methyl-4-phenoxyphenyl)-4-oxo-N-(tetrahydro-2H-pyran-3-yl)-4,5-dihydro-3H-1-thia-3,5,8-triazaacenaphthylene-2-carboxamide] | 6.0 |
| Cc1cc(Oc2ccccc2)ccc1N1C(=O)Nc2c(C(=O)N[C@H]3CCCCN(Cc4ccccc4)C3=O)sc3nccc1c23 [Example 309, (S)—N-(1-Benzyl-2-oxoazepan-3-yl)-5-(2-methyl-4-phenoxyphenyl)-4-oxo-4,5-dihydro-3H-1-thia-3,5,8-triazaacenaphthylene-2-carboxamide] | 6.0 |
| Cc1cc(Oc2ccccc2)ccc1N1C(=O)Nc2c(C(=O)NC[C@@H]3CCCCN3)sc3nccc1c23 [Example 310, (S)-5-(2-Methyl-4-phenoxyphenyl)-4-oxo-N-(piperidin-2-ylmethyl)-4,5-dihydro-3H-1-thia-3,5,8-triazaacenaphthylene-2-carboxamide] | 6.0 |
| C=CC(=O)N1CC[C@@H](NC(=O)c2sc3nccc4c3c2NC(=O)N4c2ccc(Oc3ccccc3)nn2)C1 [Example 311, (R)—N-(1-Acryloylpyrrolidin-3-yl)-4-oxo-5-(6-phenoxypyridazin-3-yl)-4,5-dihydro-3H-1-thia-3,5,8-triazaacenaphthylene-2-carboxamide] | 5.9 |
| CO[C@H]1C[C@@H](NC(=O)c2sc3nccc4c3c2NC(=O)N4c2ccc(Oc3ccccc3)cc2C)CN(C)C1 [Example 312, N-((3R,5S)-5-Methoxy-1-methylpiperidin-3-yl)-5-(2-methyl-4-phenoxyphenyl)-4-oxo-4,5-dihydro-3H-1-thia-3,5,8-triazaacenaphthylene-2-carboxamide] | 5.9 |
| C=CC(=O)N1CC[C@@H](NC(=O)c2sc3nccc4c3c2NC(=O)N4c2ccccc2C)C1 [Example 314, (R)—N-(1-Acryloylpyrrolidin-3-yl)-4-oxo-5-(o-tolyl)-4,5-dihydro-3H-1-thia-3,5,8-triazaacenaphthylene-2-carboxamide] | 5.9 |
| Cc1cc(Oc2ccccc2)ccc1N1C(=O)Nc2c(C(=O)NCC(=O)N3CCOCC3)sc3nccc1c23 [Example 315, 5-(2-Methyl-4-phenoxyphenyl)-N-(2-morpholino-2-oxoethyl)-4-oxo-4,5-dihydro-3H-1-thia-3,5,8-triazaacenaphthylene-2-carboxamide] | 6.9 |
| Cc1cc(Oc2ccccc2)cc(C)c1N1C(=O)Nc2c(C(=O)N[C@@H]3CCCN(C)C3)sc3nccc1c23 [Example 317, (R)-5-(2,6-Dimethyl-4-phenoxyphenyl)-N-(1-methylpiperidin-3-yl)-4-oxo-4,5-dihydro-3H-1-thia-3,5,8-triazaacenaphthylene-2-carboxamide] | 5.8 |
| CCN1CCC[C@@H](NC(=O)c2sc3nccc4c3c2NC(=O)N4c2ccc(Oc3ccccc3C(C)C)cc2C)C1 [Example 320, (R)—N-(1-Ethylpiperidin-3-yl)-5-(4-(2-isopropylphenoxy)-2-methylphenyl)-4-oxo-4,5-dihydro-3H-1-thia-3,5,8-triazaacenaphthylene-2-carboxamide] | 6.7 |
| Cc1cc(OC2CC2)ccc1N1C(=O)Nc2c(C(=O)N[C@@H]3CCCN(C)C3)sc3nccc1c23 [Example 322, (R)-5-(4-Cyclopropoxy-2-methylphenyl)-N-(1-methylpiperidin-3-yl)-4-oxo-4,5-dihydro-3H-1-thia-3,5,8-triazaacenaphthylene-2-carboxamide] | 5.7 |
| C=CC(=O)N1CC[C@@H](NC(=O)c2sc3nccc4c3c2NC(=O)N4c2ccc(Oc3ccccc3)cc2C(F)(F)F)C1 [Example 324, (R)—N-(1-Acryloylpyrrolidin-3-yl)-4-oxo-5-(4-phenoxy-2-(trifluoromethyl)phenyl)-4,5-dihydro-3H-1-thia-3,5,8-triazaacenaphthylene-2-carboxamide] | 5.7 |
| Cc1cc(Oc2ccccc2C(N)=O)ccc1N1C(=O)Nc2c(C(=O)N[C@@H]3CCCN(C)C3)sc3nccc1c23 [Example 326, (R)-5-(4-(2-Carbamoylphenoxy)-2-methylphenyl)-N-(1-methylpiperidin-3-yl)-4-oxo-4,5-dihydro-3H-1-thia-3,5,8-triazaacenaphthylene-2-carboxamide] | 5.7 |
| Cc1cnc2sc(C(=O)N[C@@H]3CCCNC3)c3c2c1N(c1ccc(Oc2ccccc2)cc1)C(=O)N3 [Example 328, (R)-6-Methyl-4-oxo-5-(4-phenoxyphenyl)-N-(piperidin-3-yl)-4,5-dihydro-3H-1-thia-3,5,8-triazaacenaphthylene-2-carboxamide] | 5.7 |
| O=C(N[C@@H]1CCCNC1)c1sc2nccc3c2c1NC(=O)N3c1cc(Cl)cc(Cl)c1 [Example 330, (R)-5-(3,5-Dichlorophenyl)-4-oxo-N-(piperidin-3-yl)-4,5-dihydro-3H-1-thia-3,5,8-triazaacenaphthylene-2-carboxamide] | 5.6 |
| Cc1cc(Oc2ccccc2)ccc1N1C(=O)Nc2c(C(=O)N(C)[C@@H]3CCNC3)sc3nccc1c23 [Example 331, (R)—N-Methyl-5-(2-methyl-4-phenoxyphenyl)-4-oxo-N-(pyrrolidin-3-yl)-4,5-dihydro-3H-1-thia-3,5,8-triazaacenaphthylene-2-carboxamide] | 5.5 |
| Cc1cc(OC(C)C)ccc1N1C(=O)Nc2c(C(=O)N[C@@H]3CCCN(C)C3)sc3nccc1c23 [Example 332, (R)-5-(4-Isopropoxy-2-methylphenyl)-N-(1-methylpiperidin-3-yl)-4-oxo-4,5-dihydro-3H-1-thia-3,5,8-triazaacenaphthylene-2-carboxamide] | 5.5 |
| CCOc1ccc(N2C(=O)Nc3c(C(=O)N[C@@H]4CCCN(C)C4)sc4nccc2c34)c(C)c1 [Example 333, (R)-5-(4-Ethoxy-2-methylphenyl)-N-(1-methylpiperidin-3-yl)-4-oxo-4,5-dihydro-3H-1-thia-3,5,8-triazaacenaphthylene-2-carboxamide] | 5.5 |
| C=CC(=O)N1CCC[C@@H](NC(=O)c2sc3nccc4c3c2NC(=O)N4c2ccc(C(C)(C)C)cc2)C1 [Example 334, (R)—N-(1-Acryloylpiperidin-3-yl)-5-(4-(tert-butyl)phenyl)-4-oxo-4,5-dihydro-3H-1-thia-3,5,8-triazaacenaphthylene-2-carboxamide] | 5.5 |
| O=C(N[C@@H]1CCCNC1)c1sc2nccc3c2c1NC(=O)N3c1cccc(Cl)c1 [Example 336, (R)-5-(3-Chlorophenyl)-4-oxo-N-(piperidin-3-yl)-4,5-dihydro-3H-1-thia-3,5,8-triazaacenaphthylene-2-carboxamide] | 5.4 |
| C=CC(=O)N1CC[C@@H](NC(=O)c2sc3nccc4c3c2NC(=O)N4c2ccccc2)C1 [Example 337, (R)—N-(1-Acryloylpyrrolidin-3-yl)-4-oxo-5-phenyl-4,5-dihydro-3H-1-thia-3,5,8-triazaacenaphthylene-2-carboxamide] | 5.4 |
| Cc1cc(Oc2ccccc2)ccc1N1C(=O)Nc2c(C(=O)N(C)[C@@H]3CCN(C)C3)sc3nccc1c23 [Example 338, (R)—N-Methyl-5-(2-methyl-4-phenoxyphenyl)-N-(1-methylpyrrolidin-3-yl)-4-oxo-4,5-dihydro-3H-1-thia-3,5,8-triazaacenaphthylene-2-carboxamide] | 5.4 |
| COc1ccc(N2C(=O)Nc3c(C(=O)N[C@@H]4CCCN(C)C4)sc4nccc2c34)c(C)c1 [Example 340, (R)-5-(4-Methoxy-2-methylphenyl)-N-(1-methylpiperidin-3-yl)-4-oxo-4,5-dihydro-3H-1-thia-3,5,8-triazaacenaphthylene-2-carboxamide] | 5.3 |
| O=C(N[C@@H]1CCCNC1)c1sc2nccc3c2c1NC(=O)N3c1ccc(C(F)(F)F)cc1 [Example 341, (R)-4-Oxo-N-(piperidin-3-yl)-5-(4-(trifluoromethyl)phenyl)-4,5-dihydro-3H-1-thia-3,5,8-triazaacenaphthylene-2-carboxamide] | 5.2 |
| COc1ccc(N2C(=O)Nc3c(C(=O)N[C@@H]4CCCNC4)sc4nccc2c34)cc1 [Example 342, (R)-5-(4-Methoxyphenyl)-4-oxo-N-(piperidin-3-yl)-4,5-dihydro-3H-1-thia-3,5,8-triazaacenaphthylene-2-carboxamide] | 5.2 |
| O=C(N[C@@H]1CCCNC1)c1sc2nccc3c2c1NC(=O)N3c1ccc(-c2ccccc2)cc1 [Example 344, (R)-5-([1,1′-Biphenyl]-4-yl)-4-oxo-N-(piperidin-3-yl)-4,5-dihydro-3H-1-thia-3,5,8-triazaacenaphthylene-2-carboxamide] | 5.0 |
| O=C(N[C@@H]1CCCNC1)c1sc2nccc3c2c1NC(=O)N3c1ccc(Cl)c(Cl)c1 [Example 346, (R)-5-(3,4-Dichlorophenyl)-4-oxo-N-(piperidin-3-yl)-4,5-dihydro-3H-1-thia-3,5,8-triazaacenaphthylene-2-carboxamide] | <5 |
| O=C(N[C@@H]1CCCNC1)c1sc2nccc3c2c1NC(=O)N3c1cccc(C(F)(F)F)c1 [Example 347, (R)-4-Oxo-N-(piperidin-3-yl)-5-(3-(trifluoromethyl)phenyl)-4,5-dihydro-3H-1-thia-3,5,8-triazaacenaphthylene-2-carboxamide] | <5 |
